# According to patent US20250277012A1 (Protagonist Therapeutics, Inc., priority 2021, published 2025):
# Like-named read-outs stand apart in the source and are kept apart here. Starred links: 1 amine or outer side, 2 acyl side, 3 side chain; linkers in the order of their positions; H or OH if unused. Positions of bridges follow the written chain, without caps; N, C: chain ends. Non-standard residues stand in square brackets, D forms with d. Residues, ends and D or L forms follow the SMILES beside them. Groups on a side chain read outwards from the residue. *: point of attachment. CH3O(CH2CH2O)11CH2CH2CO = COCCOCCOCCOCCOCCOCCOCCOCCOCCOCCOCCOCCC(=O)*; X1 = C[N+](C)(CCNC(=O)CCCCCCCCCCCCCCCCC(=O)O)CC(=O)*; Ala(quinolin-3-yl) = N[C@@H](Cc1cnc2ccccc2c1)C(=O)O; C18 diacid = O=C(O)CCCCCCCCCCCCCCCCC(=O)*; Dip = N[C@H](C(=O)O)C(c1ccccc1)c1ccccc1; γGlu = O=C(O)[C@H](CCC(=O)[*:2])N[*:1]; 1Nal = N[C@@H](Cc1cccc2ccccc12)C(=O)O; NMeY = CN[C@@H](Cc1ccc(O)cc1)C(=O)O; β3hF = N[C@H](CC(=O)O)Cc1ccccc1; NMeK = CN[C@@H](CCCCN)C(=O)O; αMeK = C[C@](N)(CCCCN)C(=O)O; Isovaleryl = CC(C)CC(=O)*; Dab = NCC[C@H](N)C(=O)O; Dap = NC[C@H](N)C(=O)O; AEEA = NCCOCCOCC(=O)O; Ahx = NCCCCCC(=O)O
# Columns and labels:
# [1] = target: T1, ferroportin (Homo sapiens, UniProt Q9NP59); test: T47D cell-based ferroportin internalization assay in presence of mouse serum albumin (MSA); set-up: a human breast carcinoma adherent cell line which endogenously expresses ferroportin; host or cells: T47D
# T1 sequence (Q9NP59 1-571): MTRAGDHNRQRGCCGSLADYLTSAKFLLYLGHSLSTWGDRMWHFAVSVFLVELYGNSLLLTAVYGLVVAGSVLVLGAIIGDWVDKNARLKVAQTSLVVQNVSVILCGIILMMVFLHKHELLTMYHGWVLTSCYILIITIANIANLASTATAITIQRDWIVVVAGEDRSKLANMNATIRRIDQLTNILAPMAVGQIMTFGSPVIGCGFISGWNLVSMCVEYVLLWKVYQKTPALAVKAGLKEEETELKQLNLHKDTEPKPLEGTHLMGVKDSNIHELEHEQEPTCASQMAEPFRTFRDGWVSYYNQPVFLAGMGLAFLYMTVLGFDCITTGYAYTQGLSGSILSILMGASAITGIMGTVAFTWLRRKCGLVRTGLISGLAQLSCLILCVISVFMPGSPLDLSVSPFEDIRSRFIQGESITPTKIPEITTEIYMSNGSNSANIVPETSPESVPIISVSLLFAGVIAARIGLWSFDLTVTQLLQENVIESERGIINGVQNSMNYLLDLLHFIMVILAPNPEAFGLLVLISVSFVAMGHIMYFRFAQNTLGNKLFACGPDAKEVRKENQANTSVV
# Summary of the method: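 Peptide potency for inducing ferroportin internalization was measured in T47D cells in the presence of serum albumin. Cells grown in RPMI with fetal bovine serum were seeded in 96-well plates at 80-100 k cells per well in 100 ul and rested overnight. Dilution series of test peptides were preincubated 30 min at room temperature, then added to the cells after the medium was aspirated.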
# [2] = target: T1, ferroportin; test: FPN activity assay: ferroportin-GFP internalization/degradation in HEK293 cells; type: cell-based; set-up: expressed in transfected cells; conditions: read-out: FPN IC50
# Procedure: Following internalization, the ferroporin protein is degraded.
# A retro inverse peptide is a peptide with a reversed sequence in all D amino acids. An example is that Hy-Glu-Thr-His-NH2 becomes Hy-DHis-DThr-DGlu-NH2. The EC50 of these reference compounds for ferroportin internalization/degradation was determined according to the FPN activity assay described above. These peptides served as control standards.
# [3] = T47D cells, 0.5% mouse serum albumin, 1 hr incubation
# [4] = ferroportin-GFP HEK293 cells, at least 18 hours
# [5] = T47D internalization assay in presence of mouse serum albumin (MSA), Table 6E
# [6] = ferroportin-GFP internalization/degradation, HEK293 cells, Table 6E
Compound,"IC50 [1, 3]","DC50 [2, 4]","IC50 [1, 5]","DC50 [2, 6]",other results
"CC(C)CC(=O)N[C@@H](CCC(=O)O)C(=O)N[C@H](C(=O)N[C@@H](Cc1c[nH]cn1)C(=O)N[C@H](C(=O)N1CCC[C@H]1C(=O)N[C@H]1CSSC[C@@H](C(=O)N[C@@H](CCCCNC(=O)COCCOCCNC(=O)COCCOCCNC(=O)CC[C@H](NC(=O)CCCCCCCCCCCCCCCCC(=O)O)C(=O)O)C(=O)N[C@H](CC(=O)N[C@H](CCCCN)C(N)=O)Cc2ccccc2)NC1=O)C(c1ccccc1)c1ccccc1)[C@@H](C)O [Compd ID 31, Isovaleric Acid-E-T-H-[Dpa]-P-[Cys]-[Cys]-[Lys(1PEG2_1PEG2_IsoGlu_C18_Diacid)]-[bhPhe]-[(D)Lys]-NH2] (Isovaleryl-ETH[Dip]PCCK([AEEA-AEEA-γGlu-C18 diacid])[β3hF][dK]-NH2; disulfide 6-7)",10 to 100 nM,10 to 100 nM,–,–,–
"COC(=O)CCC(CCCC(C)C)C(=O)N[C@H](C(=O)N[C@@H](Cc1c[nH]cn1)C(=O)N[C@H](C(=O)N1CCC[C@H]1C(=O)N[C@H]1CSSC[C@@H](C(=O)N(C)[C@@H](CCCCNC(=O)CCCCCNC(=O)C[N+](C)(C)CCNC(=O)CCCCCCCCCCCCCCCCC(=O)O)C(=O)N[C@H](C(=O)N[C@H](CCCCN)C(N)=O)C(c2ccccc2)c2ccccc2)NC1=O)C(c1ccccc1)c1ccccc1)[C@@H](C)O (single isomer, unassigned) [compound 137]",–,–,–,–,"IC50 ([1]; Table 6E, T47D internalization assay with MSA): 10 to 100 nM; DC50 ([2]; Table 6E, ferroportin-GFP internalization/degradation, at least 18 hours incubation): 10 to 100 nM"
COCCOCCOCCOCCOCCOCCOCCOCCOCCOCCOCCOCCC(=O)NCCCC[C@@H](NC(=O)C[C@H](Cc1ccccc1)NC(=O)[C@H](CCCCNC(=O)COCCOCCNC(=O)COCCOCCNC(=O)[C@H](CN)NC(=O)CCCCCCCCCCCCCCCCC(=O)O)N(C)C(=O)[C@@H]1CSSC[C@H](NC(=O)[C@@H]2CCCN2C(=O)[C@@H](NC(=O)[C@H](Cc2c[nH]cn2)NC(=O)[C@@H](NC(=O)[C@H](CCC(=O)O)NC(=O)CC(C)C)[C@@H](C)O)C(c2ccccc2)c2ccccc2)C(=O)N1)C(N)=O [compound 255] (Isovaleryl-ETH[Dip]PCC[NMeK]([AEEA-AEEA-Dap-C18 diacid])[β3hF][dK](CH3O(CH2CH2O)11CH2CH2CO)-NH2; disulfide 6-7),–,–,10 to 100 nM,10 to 100 nM,–
CC(C)CC(=O)N[C@@H](CCC(=O)O)C(=O)N[C@H](C(=O)N[C@@H](Cc1c[nH]cn1)C(=O)N[C@H](C(=O)N1CCC[C@H]1C(=O)N[C@H]1CSSC[C@@H](C(=O)N[C@@H](CCCCNC(=O)COCCOCCNC(=O)COCCOCCNC(=O)[C@H](CN)NC(=O)CCCCCCCCCCCCCCCCC(=O)O)C(=O)N[C@H](CC(=O)N[C@H](CCCCN)C(N)=O)Cc2ccccc2)NC1=O)C(c1ccccc1)c1ccccc1)[C@@H](C)O [Compd 41] (Isovaleryl-ETH[Dip]PCCK([AEEA-AEEA-Dap-C18 diacid])[β3hF][dK]-NH2; disulfide 6-7),10 to 100 nM,10 to 100 nM,–,–,–
CC[C@H](C)[C@H](NC(=O)[C@@H]1CSSC[C@H](NC(=O)[C@@H](NC(=O)[C@H](Cc2c[nH]cn2)NC(=O)[C@@H](NC(=O)[C@H](CCC(=O)O)NC(=O)CC(C)C)[C@@H](C)O)C(c2ccccc2)c2ccccc2)C(=O)N1)C(=O)N[C@@H](CCCCNC(=O)COCCOCCNC(=O)COCCOCCNC(=O)CCCCCNC(=O)CCCCCCCCCCCCCCCCC(=O)O)C(=O)N[C@H](CC(=O)N[C@H](CCCCN)C(N)=O)Cc1ccccc1 [Compd 21] (Isovaleryl-ETH[Dip]CCIK([AEEA-AEEA-Ahx-C18 diacid])[β3hF][dK]-NH2; disulfide 5-6),10 to 100 nM,10 to 100 nM,–,–,–
CC(C)CC(=O)N[C@@H](CCC(=O)O)C(=O)N[C@H](C(=O)N[C@@H](Cc1c[nH]cn1)C(=O)N[C@H](C(=O)N1CCC[C@H]1C(=O)N[C@H]1CSSC[C@@H](C(=O)N[C@@H](CCCCNC(=O)COCCOCCNC(=O)COCCOCCNC(=O)CCCCCNC(=O)CCCCCCCCCCCCCCCCC(=O)O)C(=O)N[C@H](CC(=O)N[C@H](CCCCN)C(N)=O)Cc2ccccc2)NC1=O)C(c1ccccc1)c1ccccc1)[C@@H](C)O [Compd 22] (Isovaleryl-ETH[Dip]PCCK([AEEA-AEEA-Ahx-C18 diacid])[β3hF][dK]-NH2; disulfide 6-7),10 to 100 nM,10 to 100 nM,–,–,–

# Further lines, with some results ahead:
"IC50 [1, 3]","DC50 [2, 4]","IC50 [1, 5]","DC50 [2, 6]",Compound,other results
–,–,> 500 nM,> 500 nM,CC(C)CC(=O)N[C@@H](CCC(=O)O)C(=O)N[C@H](C(=O)N[C@@H](Cc1cnc2ccccc2c1)C(=O)N[C@H](C(=O)N1CCC[C@H]1C(=O)N[C@H]1CSSC[C@@H](C(=O)N(C)[C@@H](CCCCNC(=O)COCCOCCNC(=O)COCCOCCNC(=O)[C@H](CN)NC(=O)CCCCCCCCCCCCCCCCC(=O)O)C(=O)N[C@H](CC(=O)N[C@H](CCCCN)C(N)=O)Cc2ccccc2)NC1=O)C(c1ccccc1)c1ccccc1)[C@@H](C)O [compound 296] (Isovaleryl-ET[Ala(quinolin-3-yl)][Dip]PCC[NMeK]([AEEA-AEEA-Dap-C18 diacid])[β3hF][dK]-NH2; disulfide 6-7),–
–,–,10 to 100 nM,10 to 100 nM,COC(=O)CC[C@H](NC(=O)CC(C)C)C(=O)N[C@H](C(=O)N[C@@H](Cc1c[nH]cn1)C(=O)N[C@H](C(=O)N1CCC[C@H]1C(=O)N[C@H]1CSSC[C@@H](C(=O)N[C@@](C)(CCCCNC(=O)COCCOCCNC(=O)COCCOCCNC(=O)[C@H](CN)NC(=O)CCCCCCCCCCCCCCCCC(=O)O)C(=O)N[C@H](CC(=O)N[C@H](CCCCN)C(N)=O)Cc2ccccc2)NC1=O)C(c1ccccc1)c1ccccc1)[C@@H](C)O [compound 301] (Isovaleryl-E(OMe)TH[Dip]PCC[αMeK]([AEEA-AEEA-Dap-C18 diacid])[β3hF][dK]-NH2; disulfide 6-7),–
–,–,10 to 100 nM,10 to 100 nM,CC(C)CC(=O)N[C@@H](CCC(=O)O)C(=O)N[C@H](C(=O)N[C@@H](Cc1c[nH]cn1)C(=O)N[C@H](C(=O)N1CCC[C@H]1C(=O)N[C@H]1CSSC[C@@H](C(=O)N(C)[C@@H](CCCCNC(=O)COCCOCCNC(=O)COCCOCCNC(=O)[C@H](CN)NC(=O)CCCCCCCCCCCCCCCCC(=O)O)C(=O)N[C@H](CC(=O)N[C@@H](CCN)C(N)=O)Cc2ccccc2)NC1=O)C(c1ccccc1)c1ccccc1)[C@@H](C)O [compound 264] (Isovaleryl-ETH[Dip]PCC[NMeK]([AEEA-AEEA-Dap-C18 diacid])[β3hF][Dab]-NH2; disulfide 6-7),–
–,–,10 to 100 nM,10 to 100 nM,CC(C)CC(=O)N[C@@H](CCC(=O)O)C(=O)N[C@H](C(=O)N[C@@H](Cc1c[nH]cn1)C(=O)N[C@H](C(=O)N1CCC[C@H]1C(=O)N[C@H]1CSSC[C@@H](C(=O)N(C)[C@@H](CCCCNC(=O)COCCOCCNC(=O)COCCOCCNC(=O)[C@H](CN)NC(=O)CCCCCCCCCCCCCCCCC(=O)O)C(=O)N[C@H](CC(=O)N[C@H](CCCCN)C(=O)N(C)[C@@H](Cc2ccc(O)cc2)C(N)=O)Cc2ccccc2)NC1=O)C(c1ccccc1)c1ccccc1)[C@@H](C)O [compound 259] (Isovaleryl-ETH[Dip]PCC[NMeK]([AEEA-AEEA-Dap-C18 diacid])[β3hF][dK][NMeY]-NH2; disulfide 6-7),–
–,–,10 to 100 nM,10 to 100 nM,CC(C)CC(=O)N[C@@H](CCC(=O)O)C(=O)N[C@H](C(=O)N[C@@H](Cc1cnc[nH]1)C(=O)N[C@H](C(=O)N1CCC[C@H]1C(=O)N[C@H]1CSSC[C@@H](C(=O)N(C)[C@@H](CCCCNC(=O)COCCOCCNC(=O)COCCOCCNC(=O)C[N+](C)(C)CCNC(=O)CCCCCCCCCCCCCCCCC(=O)O)C(=O)N[C@H](CC(=O)N[C@H](CCCCN)C(N)=O)Cc2ccccc2)NC1=O)C(c1ccccc1)c1ccccc1)[C@@H](C)O [compound 283] (Isovaleryl-ETH[Dip]PCC[NMeK]([AEEA-AEEA-X1])[β3hF][dK]-NH2; disulfide 6-7),–
–,–,10 to 100 nM,10 to 100 nM,CC(C)CC(=O)N[C@@H](CCC(=O)O)C(=O)N[C@H](C(=O)N[C@@H](Cc1c[nH]cn1)C(=O)N[C@H](C(=O)N1CCC[C@H]1C(=O)N[C@H]1CSSC[C@@H](C(=O)N(C)[C@@H](CCCCNC(=O)COCCOCCNC(=O)COCCOCCNC(=O)[C@H](CN)NC(=O)CCCCCCCCCCCCCCCCC(=O)O)C(=O)N[C@H](CC(=O)N[C@H](CCCCN)C(=O)N[C@@H](Cc2cccc3ccccc23)C(N)=O)Cc2ccccc2)NC1=O)C(c1ccccc1)c1ccccc1)[C@@H](C)O [compound 258] (Isovaleryl-ETH[Dip]PCC[NMeK]([AEEA-AEEA-Dap-C18 diacid])[β3hF][dK][1Nal]-NH2; disulfide 6-7),–
